Among the data in patent publication US20230102554A1 (GB002, INC., priority 2019, published 2023) are IC50 values, retold here.

Assay [1] concerns the target T1, Human PDGFRβ, cytoplasmic domain (GST-PDGFRβ) (Homo sapiens, UniProt P09619).
T1 construct: made in house
The assay is described as follows: Human PDGFRβ biochemical inhibition assay (off-chip Mobility Shift Assay). Put shortly:
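GST-tagged cytoplasmic domain (aa 557-1106) from baculovirus was incubated 1 h at room temperature with compound, CSKtide, ATP at Km and Mg²⁺ in HEPES buffer, pH 7.5. Phosphorylated and unphosphorylated peptide were separated by off-chip mobility shift, and the product ratio P/(P+S) gave percent inhibition.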

In assay [2] the target is T2, Human PDGFRα, cytoplasmic domain (GST-PDGFRα) (Homo sapiens, UniProt P16234).
T2 construct: made in house
T2 sequence (P16234 550-1089 T674I): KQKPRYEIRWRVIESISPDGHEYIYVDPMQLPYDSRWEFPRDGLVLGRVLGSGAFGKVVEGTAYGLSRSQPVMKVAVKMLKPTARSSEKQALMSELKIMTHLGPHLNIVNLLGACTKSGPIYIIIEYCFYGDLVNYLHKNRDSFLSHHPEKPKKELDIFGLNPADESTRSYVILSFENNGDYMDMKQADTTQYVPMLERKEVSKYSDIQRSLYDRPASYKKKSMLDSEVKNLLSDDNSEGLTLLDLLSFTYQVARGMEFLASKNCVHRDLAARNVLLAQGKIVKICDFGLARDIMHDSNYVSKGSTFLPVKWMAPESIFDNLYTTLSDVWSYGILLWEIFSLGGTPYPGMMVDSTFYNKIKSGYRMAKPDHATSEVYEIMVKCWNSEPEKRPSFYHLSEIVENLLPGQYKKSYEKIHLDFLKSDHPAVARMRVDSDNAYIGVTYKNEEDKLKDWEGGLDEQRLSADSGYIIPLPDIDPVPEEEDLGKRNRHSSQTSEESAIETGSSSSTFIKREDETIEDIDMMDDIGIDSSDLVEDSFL
The assay is described as follows: Human PDGFRα biochemical inhibition assay (off-chip Mobility Shift Assay).

T1 sequence (P09619 with tags, fused parts or gaps): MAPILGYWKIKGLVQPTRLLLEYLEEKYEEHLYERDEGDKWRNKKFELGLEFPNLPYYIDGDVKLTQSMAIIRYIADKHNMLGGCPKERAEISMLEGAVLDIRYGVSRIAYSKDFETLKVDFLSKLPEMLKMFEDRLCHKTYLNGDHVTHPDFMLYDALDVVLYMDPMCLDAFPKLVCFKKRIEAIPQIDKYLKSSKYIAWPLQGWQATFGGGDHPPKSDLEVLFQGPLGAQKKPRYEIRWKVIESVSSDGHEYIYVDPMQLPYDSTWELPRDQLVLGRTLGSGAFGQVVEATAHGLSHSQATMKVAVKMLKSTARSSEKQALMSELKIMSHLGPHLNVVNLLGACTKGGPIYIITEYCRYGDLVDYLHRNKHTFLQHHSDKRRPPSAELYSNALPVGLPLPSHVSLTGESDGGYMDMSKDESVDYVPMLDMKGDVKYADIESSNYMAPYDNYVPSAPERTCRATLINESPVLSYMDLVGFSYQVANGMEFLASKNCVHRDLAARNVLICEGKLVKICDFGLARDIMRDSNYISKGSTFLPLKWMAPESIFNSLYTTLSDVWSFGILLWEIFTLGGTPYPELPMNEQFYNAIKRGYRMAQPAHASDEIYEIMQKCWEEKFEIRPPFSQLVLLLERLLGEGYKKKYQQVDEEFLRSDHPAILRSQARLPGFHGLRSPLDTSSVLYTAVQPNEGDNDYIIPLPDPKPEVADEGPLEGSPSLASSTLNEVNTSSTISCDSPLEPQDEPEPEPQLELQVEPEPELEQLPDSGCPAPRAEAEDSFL

Consider `CCn1cc2ncc(N[C@@H](C)c3cccc(NC(=O)Cc4cccnc4)c3)nc2n1` [Compound 624, (S)-N-(3-(1-((2-ethyl-2H-pyrazolo[3,4-b]pyrazin-6-yl)amino)ethyl)phenyl)-2-(pyridin-3-yl)acetamide], for which the IC50 (commonly the concentration that gives 50% inhibition) in assay [1] is no less than 1000 nM; in assay [2], 300 to 1000 nM.

As to `Cc1ccc(C(=O)Nc2cccc([C@H](C)Nc3cnc4cnn(C)c4n3)c2)cc1F` [Compound 188, (S)-3-fluoro-4-methyl-N-(3-(1-((1-methyl-1H-pyrazolo[3,4-b]pyrazin-6-yl)amino)ethyl)phenyl)benzamide], the IC50 in assay [1] and in assay [2] was less than 300 nM each time.

Regarding `C[C@H](Nc1cnc2cnn(C)c2n1)c1cc(NC(=O)c2ccc(OC(F)F)nc2)ccc1F` [Compound 202, (S)-6-(difluoromethoxy)-N-(4-fluoro-3-(1-((1-methyl-1H-pyrazolo[3,4-b]pyrazin-6-yl)amino)ethyl)phenyl) nicotinamide], the concentration for half-maximal inhibition (IC50) in assay [1] and in assay [2] was less than 300 nM in each case.

With `Cc1c[nH]c2ncc(N[C@@H](C)c3cccc(NC(=O)c4ccc(C(F)F)s4)c3)nc12` [Compound 560, (S)-5-(difluoromethyl)-N-(3-(1-((7-methyl-5H-pyrrolo[2,3-b]pyrazin-2-yl)amino)ethyl)phenyl)thiophene-2-carboxamide], the IC50 in assay [1] and in assay [2] was less than 300 nM each time.

For the molecule `CCn1cc2ncc(N[C@@H](C)c3cc(NC(=O)c4cnc(N5CCN(C)CC5)c(C)c4)ccc3F)nc2n1` [Compound 432, (S)-N-(3-(1-((2-ethyl-2H-pyrazolo[3,4-b]pyrazin-6-yl)amino)ethyl)-4-fluorophenyl)-5-methyl-6-(4-methylpiperazin-1-yl)nicotinamide], the IC50 in assay [1] and in assay [2] was less than 300 nM throughout.

As for `CCn1cc2ncc(N[C@@H](C)c3cccc(NC(=O)c4cnc(C(F)F)s4)c3)nc2n1` [Compound 319, (S)-2-(difluoromethyl)-N-(3-(1-((2-ethyl-2H-pyrazolo[3,4-b]pyrazin-6-yl)amino)ethyl)phenyl)thiazole-5-carboxamide], the IC50 in assay [1] and in assay [2] was less than 300 nM in each case.

With `CCc1ccc(NC(=O)c2ccc(C(F)(F)F)nc2)cc1[C@H](C)Nc1cnc2cn(CC)nc2n1` [Compound 516, (S)-N-(4-ethyl-3-(1-((2-ethyl-2H-pyrazolo[3,4-b]pyrazin-6-yl)amino)ethyl)phenyl)-6-(trifluoromethyl)nicotinamide], the IC50 in assay [1] and in assay [2] was no less than 1000 nM throughout.

Take `Cc1cncc(C(=O)Nc2cccc([C@H](C)Nc3cnc4cnn(C5COC5)c4n3)c2)c1` [Compound 179, (S)-5-methyl-N-(3-(1-((1-(oxetan-3-yl)-1H-pyrazolo[3,4-b]pyrazin-6-yl)amino)ethyl)phenyl)nicotinamide]: the concentration for half-maximal inhibition (IC50) in assay [1] was no less than 1000 nM; in assay [2], 300 to 1000 nM.

On to `COc1cccc2ncc(N[C@@H](C)c3cccc(NC(=O)c4cncc(C)c4)c3)cc12` [Compound 27, (S)-N-(3-(1-((5-methoxyquinolin-3-yl)amino)ethyl)phenyl)-5-methylnicotinamide], for which the IC50 in assay [1] and in assay [2] was less than 300 nM throughout.

Take `CCn1cc2ncc(N[C@@H](C)c3cccc(NC(=O)Cc4ccc(Cl)cn4)c3)nc2n1` [Compound 681, (S)-2-(5-chloropyridin-2-yl)-N-(3-(1-((2-ethyl-2H-pyrazolo[3,4-b]pyrazin-6-yl)amino)ethyl)phenyl)acetamide]: the IC50 in assay [1] was no less than 1000 nM; in assay [2], less than 300 nM.

Consider `CCn1cc2ncc(N[C@@H](C)c3cc(NC(=O)Cc4ccc(C)cn4)c(F)cc3F)nc2n1` [Compound 724, (S)-N-(5-(1-((2-ethyl-2H-pyrazolo[3,4-b]pyrazin-6-yl)amino)ethyl)-2,4-difluorophenyl)-2-(5-methylpyridin-2-yl)acetamide], for which the IC50 in assay [1] was no less than 1000 nM; in assay [2] it was less than 300 nM.

With `CCn1cc2ncc(N[C@@H](C)c3cc(NC(=O)c4ccc(C(F)(F)F)nc4)c(F)cc3F)nc2n1` [Compound 492, (S)-N-(5-(1-((2-ethyl-2H-pyrazolo[3,4-b]pyrazin-6-yl)amino)ethyl)-2,4-difluorophenyl)-6-(trifluoromethyl)nicotinamide], the IC50 in assay [1] is 300 to 1000 nM; in assay [2], less than 300 nM.

For the molecule `CCn1cc2ncc(N[C@@H](C)c3cccc(NC(=O)c4ccc(OC(C)C)nc4)c3)nc2n1` [Compound 287, (S)-N-(3-(1-((2-ethyl-2H-pyrazolo[3,4-b]pyrazin-6-yl)amino)ethyl)phenyl)-6-isopropoxynicotinamide], the IC50 in assay [1] and in assay [2] was less than 300 nM throughout.

On to `Cc1cncc(C(=O)Nc2cccc([C@H](C)Nc3cnn4ccc(-c5cnn(C)c5)cc34)c2)c1` [Compound 745, (S)-5-methyl-N-(3-(1-((5-(1-methyl-1H-pyrazol-4-yl)pyrazolo[1,5-a]pyridin-3-yl)amino)ethyl)phenyl) nicotinamide], for which the IC50 in assay [1] and in assay [2] was no less than 1000 nM each time.

Turning to `Cc1cncc(C(=O)Nc2cccc([C@H](C)Nc3cnn4ccccc34)c2)c1` [Compound 20, (S)-5-methyl-N-(3-(1-(pyrazolo[1,5-a]pyridin-3-ylamino)ethyl)phenyl)nicotinamide], the IC50 in assay [1] and in assay [2] was no less than 1000 nM each time.

As for `C[C@H](Nc1cnc2cnn(C)c2n1)c1cccc(NC(=O)c2ccc3c(c2)COC3=O)c1` [Compound 67, (S)-N-(3-(1-((1-methyl-1H-pyrazolo[3,4-b]pyrazin-6-yl)amino)ethyl)phenyl)-1-oxo-1,3-dihydroisobenzofuran-5-carboxamide], the IC50 in assay [1] and in assay [2] was less than 300 nM throughout.

As for `CCn1cc2ncc(N[C@@H](C)c3cc(NC(=O)Cc4ccc(C5CCC5)nc4)ccc3F)nc2n1` [Compound 671, (S)-2-(6-cyclobutylpyridin-3-yl)-N-(3-(1-((2-ethyl-2H-pyrazolo[3,4-b]pyrazin-6-yl)amino)ethyl)-4-fluorophenyl) acetamide], the 50% inhibitory concentration (IC50) is no less than 1000 nM in assay [1] and less than 300 nM in assay [2].

For the molecule `CCn1cc2ncc(N[C@@H](C)c3cccc(NC(=O)c4cnc(C)c(C)c4)c3)nc2n1` [Compound 328, (S)-N-(3-(1-((2-ethyl-2H-pyrazolo[3,4-b]pyrazin-6-yl)amino)ethyl)phenyl)-5,6-dimethylnicotinamide], the IC50 in assay [1] and in assay [2] was less than 300 nM in each case.

On to `CCn1cc2ncc(N[C@@H](C)c3cc(NC(=O)c4ccc(CN5CCN(C)CC5)c(C)c4)ccc3C)nc2n1` [Compound 524, (S)-N-(3-(1-((2-ethyl-2H-pyrazolo[3,4-b]pyrazin-6-yl)amino)ethyl)-4-methylphenyl)-3-methyl-4-((4-methylpiperazin-1-yl)methyl)benzamide], for which the IC50 in assay [1] and in assay [2] was less than 300 nM throughout.

Take `CCc1ncc(C(=O)Nc2cccc([C@H](C)Nc3cnc4cn(CC)nc4n3)c2)s1` [Compound 341, (S)-2-ethyl-N-(3-(1-((2-ethyl-2H-pyrazolo[3,4-b]pyrazin-6-yl)amino)ethyl)phenyl)thiazole-5-carboxamide]: the IC50 in assay [1] and in assay [2] was less than 300 nM throughout.

In the case of `CCn1cc2ncc(N[C@@H](C)c3cc(NC(=O)Cc4ccc(C5CCC5)nc4)ccc3C)nc2n1` [Compound 672, (S)-2-(6-cyclobutylpyridin-3-yl)-N-(3-(1-((2-ethyl-2H-pyrazolo[3,4-b]pyrazin-6-yl)amino)ethyl)-4-methylphenyl) acetamide], the IC50 in assay [1] was no less than 1000 nM; in assay [2] it was less than 300 nM.

As to `COc1ccc(C(=O)Nc2cccc([C@H](C)Nc3cnc4[nH]cc(-c5cnn(C)c5)c4n3)c2)cn1` [Compound 566, (S)-6-methoxy-N-(3-(1-((7-(1-methyl-1H-pyrazol-4-yl)-5H-pyrrolo[2,3-b]pyrazin-2-yl)amino)ethyl)phenyl) nicotinamide], the IC50 in assay [1] and in assay [2] was less than 300 nM each time.

Consider `CCn1cc2ncc(N[C@@H](C)c3cc(NC(=O)Cc4ccc(F)cc4)ccc3C)nc2n1` [Compound 701, (S)-N-(3-(1-((2-ethyl-2H-pyrazolo[3,4-b]pyrazin-6-yl)amino)ethyl)-4-methylphenyl)-2-(4-fluorophenyl)acetamide], for which the IC50 in assay [1] and in assay [2] was less than 300 nM in each case.

Regarding `CCn1cc2ncc(N[C@@H](C)c3cccc(NC(=O)Nc4cncc(C)c4)c3)nc2n1` [Compound 732, (S)-1-(3-(1-((2-ethyl-2H-pyrazolo[3,4-b]pyrazin-6-yl)amino)ethyl)phenyl)-3-(5-methylpyridin-3-yl)urea], the results for the IC50 in assay [1] and in assay [2] were 300 to 1000 nM and less than 300 nM, respectively.

For the molecule `CCn1cc2ncc(N[C@@H](C)c3cc(NC(=O)Cc4cncc(C)c4)ccc3F)nc2n1` [Compound 652, (S)-N-(3-(1-((2-ethyl-2H-pyrazolo[3,4-b]pyrazin-6-yl)amino)ethyl)-4-fluorophenyl)-2-(5-methylpyridin-3-yl) acetamide], the IC50 in assay [1] was 300 to 1000 nM; in assay [2], less than 300 nM.

`CCn1cc2ncc(N[C@@H](C)c3cccc(NC(=O)Nc4cnn(C(C)C)c4)c3)nc2n1` [Compound 733, (S)-1-(3-(1-((2-ethyl-2H-pyrazolo[3,4-b]pyrazin-6-yl)amino)ethyl)phenyl)-3-(1-isopropyl-1H-pyrazol-4-yl)urea]: the results for the IC50 in assay [1] and in assay [2] were 300 to 1000 nM and less than 300 nM, respectively.

Regarding `Cc1cncc(C(=O)Nc2cccc([C@H](C)Nc3cnc4cnn(CC5CC5)c4n3)c2)c1` [Compound 181, (S)-N-(3-(1-((1-(cyclopropylmethyl)-1H-pyrazolo[3,4-b]pyrazin-6-yl)amino)ethyl)phenyl)-5-methylnicotinamide], the IC50 in assay [1] and in assay [2] was less than 300 nM throughout.

Take `CCn1cc2ncc(N[C@@H](C)c3cccc(NC(=O)c4cnc(-n5ccnc5)c(C)c4)c3)nc2n1` [Compound 334, (S)-N-(3-(1-((2-ethyl-2H-pyrazolo[3,4-b]pyrazin-6-yl)amino)ethyl)phenyl)-6-(1H-imidazol-1-yl)-5-methylnicotinamide]: the IC50 in assay [1] and in assay [2] was less than 300 nM in each case.
